Source: EP0745595A1, “3-(3-Aryloxyphenyl)-1-(substituted methyl)-s-triazine-2,4,6-oxo or thiotrione herbicidal agents” (American Cyanamid Company, priority 1995, dated 1996)

Tests used:
Type in all cases: in vivo
CYPERUS SEROTINUS = assay: Preemergence evaluation in the presence of transplanted rice under flooded paddy conditions (Example 43), CYPSE (Flatsedge, perennial); parameters: key: 0-9 visual rating scale vs. untreated control; conditions: applied three days after sowing, 25 to 30 days after treatment
Description: (§1) Results of herbicide evaluation are expressed on a rating scale (0-9). The scale is based upon a visual observation of plant stand, vigor, malformation, size, chlorosis and overall plant appearance as compared with a control.
(§2) In this example, Deluvian paddy soil (Toyokawa paddy soil) is placed in plastic pots, 100cm^2 x 9 cm in depth. Water is added to the level of the soil surface in the pot and the mixture is paddled 3 cm in depth.
(§3) Pots are then variously sown with monocotyledenous weed seeds and tubers at 0-2 cm in soil depth, as well as transplanted rice plants at the 2.5 leaf stage. The rice plants are transplanted at about 3 cm soil depth. Water is then added to all of the pots to 3 cm deep and kept at a depth of 3 cm for the duration of the test. Test compounds are applied in the manner described in Example 42 three days after transplanting the rice plants and sowing the weed seeds and tubers. The pots are then placed on greenhouse benches and cared for in the conventional manner. Tests are examined at 25 to 30 days after treatment and rated according to the rating system provided in Example 40. The compounds evaluated are reported by compound number given in Example 40.

[…] = Preemergence evaluation in the presence of transplanted rice under flooded paddy conditions (Example 43), MOOVA (Monochoria); conditions: applied three days after sowing, 25 to 30 days after treatment
Description: as §1, §2, §3

SCIRPUS JUNCOIDES = assay: Preemergence evaluation in the presence of transplanted rice under flooded paddy conditions (Example 43), SCPJU (Bulrush, Japanese); parameters: key: visual rating on a 0-9 scale, compared with control; conditions: applied three days after sowing, 25 to 30 days after treatment
Description: as §1, §2, §3

ECHINOCHLOA CRUS-GALLI = assay: Preemergence evaluation in the presence of transplanted rice under flooded paddy conditions (Example 43), ECHCG (Barnyard Grass); parameters: key: visual rating on a 0-9 scale, compared with control; conditions: applied three days after sowing, 25 to 30 days after treatment
Description: as §1, §2, §3

CYPERUS DIFFORMIS = assay: Preemergence evaluation in the presence of transplanted rice under flooded paddy conditions (Example 43), CYPDI (Flatsedge, smallflower); parameters: key: visual rating on a 0-9 scale, compared with control; conditions: applied three days after sowing, 25 to 30 days after treatment
Description: as §1, §2, §3

SAGITTARIA PYGMAEA = assay: Preemergence evaluation in the presence of transplanted rice under flooded paddy conditions (Example 43), SAGPY (Arrowhead (Pygmaea)); parameters: key: visual rating on a 0-9 scale, compared with control; conditions: applied three days after sowing, 25 to 30 days after treatment
Description: as §1, §2, §3

[1] = test system: ORYZA SATIVA, L. CV. KOSHIHIKARI; assay: Post-transplant rice evaluation under flooded paddy conditions (Example 43), ORYSAK (Rice, Koshihikari); parameters: key: visual rating on a 0-9 scale, compared with control; conditions: applied three days after transplanting rice, 25 to 30 days after treatment
Description: as §1, §2, §3

Row | SMILES | Herbicidal effect rating, CYPSE (CYPERUS SEROTINUS; 0.025 kg/ha) | Herbicidal effect rating, CYPSE (CYPERUS SEROTINUS; 0.050 kg/ha) | Herbicidal effect rating, CYPSE (CYPERUS SEROTINUS; 0.100 kg/ha) | Herbicidal effect rating, CYPSE (CYPERUS SEROTINUS; 0.250 kg/ha) | Herbicidal effect rating, MOOVA ([…]; 0.025 kg/ha) | Herbicidal effect rating, MOOVA ([…]; 0.050 kg/ha) | Herbicidal effect rating, MOOVA ([…]; 0.100 kg/ha) | Herbicidal effect rating, MOOVA ([…]; 0.250 kg/ha) | Herbicidal effect rating, SCPJU (SCIRPUS JUNCOIDES; 0.025 kg/ha) | Herbicidal effect rating, SCPJU (SCIRPUS JUNCOIDES; 0.050 kg/ha) | Herbicidal effect rating, SCPJU (SCIRPUS JUNCOIDES; 0.100 kg/ha) | Herbicidal effect rating, SCPJU (SCIRPUS JUNCOIDES; 0.250 kg/ha) | Herbicidal effect rating, ECHCG (ECHINOCHLOA CRUS-GALLI; 0.025 kg/ha) | Herbicidal effect rating, ECHCG (ECHINOCHLOA CRUS-GALLI; 0.050 kg/ha) | Herbicidal effect rating, ECHCG (ECHINOCHLOA CRUS-GALLI; 0.100 kg/ha) | Herbicidal effect rating, ECHCG (ECHINOCHLOA CRUS-GALLI; 0.250 kg/ha) | Herbicidal effect rating, CYPDI (CYPERUS DIFFORMIS; 0.025 kg/ha) | Herbicidal effect rating, CYPDI (CYPERUS DIFFORMIS; 0.050 kg/ha) | Herbicidal effect rating, CYPDI (CYPERUS DIFFORMIS; 0.100 kg/ha) | Herbicidal effect rating, CYPDI (CYPERUS DIFFORMIS; 0.250 kg/ha) | other results
1 | COC(=O)Cn1c(=O)n(C)c(=O)n(-c2cc(Oc3ccc(C(F)(F)F)cc3Cl)ccc2[N+](=O)[O-])c1=O [Compound 3, Methyl 3-{5-[(2-chloro-α,α,α-trifluoro-p-tolyl)oxy]-2-nitrophenyl}tetrahydro-5-methyl-2,4,6-trioxo-s-triazine-1(2H)-acetate] | 0.0 | 5.0 | 8.0 | 9.0 | 3.0 | 5.0 | 7.0 | 9.0 | 5.0 | 7.0 | 9.0 | 9.0 | 8.0 | 9.0 | 9.0 | 9.0 | 5.0 | 8.0 | 9.0 | 9.0 | Herbicidal effect rating, SAGPY (SAGITTARIA PYGMAEA; 0.025 kg/ha): 0.0; Herbicidal effect rating, SAGPY (SAGITTARIA PYGMAEA; 0.050 kg/ha): 0.0; Herbicidal effect rating, SAGPY (SAGITTARIA PYGMAEA; 0.100 kg/ha): 1.0; Herbicidal effect rating, SAGPY (SAGITTARIA PYGMAEA; 0.250 kg/ha): 3.0; Herbicidal effect rating, ORYSAK ([1]; 0.025 kg/ha): 0.0; Herbicidal effect rating, ORYSAK ([1]; 0.050 kg/ha): 1.0; Herbicidal effect rating, ORYSAK ([1]; 0.100 kg/ha): 5.0; Herbicidal effect rating, ORYSAK ([1]; 0.250 kg/ha): 8.0
2 | COC(=O)Cn1c(=O)n(C)c(=O)n(-c2cc(Oc3c(F)cc(C(F)(F)F)cc3Cl)ccc2Br)c1=O [Compound 2, Methyl 3-{2-bromo-5-[(2-chloro-α,α,α,6-tetrafluoro-p-tolyl)oxy]phenyl}tetrahydro-5-methyl-2,4,6-trioxo-s-triazine-1(2H)-acetate] | 4.0 | 7.0 | 9.0 | 9.0 | 9.0 | 9.0 | 9.0 | 9.0 | 8.0 | 9.0 | 9.0 | 9.0 | 9.0 | 9.0 | 9.0 | 9.0 | 9.0 | 9.0 | 9.0 | 9.0 | Herbicidal effect rating, SAGPY (SAGITTARIA PYGMAEA; 0.025 kg/ha): 3.0; Herbicidal effect rating, SAGPY (SAGITTARIA PYGMAEA; 0.050 kg/ha): 7.0; Herbicidal effect rating, SAGPY (SAGITTARIA PYGMAEA; 0.100 kg/ha): 9.0; Herbicidal effect rating, SAGPY (SAGITTARIA PYGMAEA; 0.250 kg/ha): 9.0; Herbicidal effect rating, ORYSAK ([1]; 0.025 kg/ha): 1.0; Herbicidal effect rating, ORYSAK ([1]; 0.050 kg/ha): 3.0; Herbicidal effect rating, ORYSAK ([1]; 0.100 kg/ha): 5.0; Herbicidal effect rating, ORYSAK ([1]; 0.250 kg/ha): 9.0
